# Tests used:
# [1] = Free radical scavenging ability (antioxidant effect), DPPH test; assay type: biochemical; conditions: 30 minutes
# Experimental: 2,2-diphenyl-1-picrylhydrazyl (DPPH) was dissolved in 99.5% ethanol to a concentration of 0.1 mM. Sulfuretin was dissolved and diluted in ethanol to concentrations of 0.1, 1, 5, 10, 25, 50 and 100 μg/ml. 10 μl of the sample was added to 90 μl of DPPH and admixed several times with a pipette, and the mixture was incubated at room temperature for 30 minutes, and the absorbance at 517 nm was measured.
# PARP = experiment: Western blot, PARP expression; assay type: cell-based, human; conditions: SH-SY5Y cells
# Experimental: (§1) The incubator was maintained at a temperature of 37° C., and a mixed gas of 95% air and 5% CO2 was continuously supplied thereto to provide suitable conditions for cell culture. The cells were cultured in a 6-well plate or a 96-well plate at each of densities of 1×10^6 and 2×10^4 cells/well 24 hours before the experiment. […] Sulfuretin was used in ethanol and used at a final concentration of 0.1% or less.
# In order to identify the effect of sulfuretin on the expression of proteins related to dementia, Alzheimer's disease, Parkinson's disease and strokes, a Western blot test was carried out.
# After 24 hours, the supernatant of each well was collected and centrifuged at 400 g for 3 minutes, and the cells were washed with cold PBS and lysed with 100 μl of T-PER lysis buffer (Thermo, USA) for 30 minutes. The lysates were centrifuged at 10000 g at 4° C. for 15 minutes, and the supernatants were stored at […] until use as test samples. Proteins were quantitatively analyzed using a BCA assay kit (Thermo, USA) and separated within 8.5-12% SDS gel and then transferred to PVDF membranes. To examine the expression of the proteins, the development of fluorescence was analyzed by enhanced chemiluminescence (ECL). Specifically, the membrane was blocked with 5% skimmed non-fat milk for 1 hour and labeled with the primary antibodies, PARP, caspase-3, phospho-p38, phospho-JNK and β-actin at 4° C. overnight. Then, the membrane was washed three times with Tris-tween buffered saline (TTBS), and then labeled with horseradish peroxidase (HRP)-conjugated anti-rabbit and anti-mouse secondary antibodies at room temperature for 1 hour. Then, the membrane was washed five times with TTBS for 10 minutes. The washed film was developed by ECL using x-ray films, and concentrations were quantitatively analyzed using quantitative analysis program (Fujifilm, Japan).
# SH-SY5Y cells = experiment: Inhibition of ROS production (DCFH-DA fluorescence); assay type: cell-based, human; conditions: hydrogen peroxide-induced, 2 hours pretreatment
# Experimental: as §1
# In order to measure ROS elimination activity, cells were labeled with DCFH-DA fluorescence, and quantitative analysis was performed using a fluorescence meter.
# Specifically, the 6-well plate in which the cells have been cultured was pretreated with sulfuretin for 2 hours, and then reacted with hydrogen peroxide for 30 minutes to induce ROS. Then, 10 μl of 10 mM DCFH-DA was added to the plate and allowed to react with the cells for 30 minutes. Herein, DCFH-DA in the incubator was covered with a foil such that it would not be exposed to light. The cells that reacted with the DCFH-DA fluorescent substance were detached using cold PBS and centrifuged at 400 g for 3 minutes. The centrifugation process was repeated twice to wash the fluorescent substance. The washed cells were briefly stirred with 1 ml of PBS, and 100 μl was dispensed into each of a fresh 96-well plate. Then, fluorescence was measured at an excitation wavelength of 488 nm and an emission wavelength of 515 nm using a fluorescence meter (Perkinelmer, USA).
# The measured value was substituted into the following equation to calculate ROS production:
# ROS production (%)=[(O.D. of control−O.D. of test group)/O.D. of control]×100
# PC12 cells = experiment: MTT (cell viability) test, corticosterone-induced cell death in PC12 cells; assay type: cell-based; conditions: Rattus norvegicus
# Experimental: For the experiment shown in FIG. 3, PC12 cells were cultured in DMEM medium (Hyclone, Thermo, USA) containing 10% FBS, 5% horse serum and antibiotics (Gibco-BRL, USA). […] The concentration of corticosterone was determined to be 400 μM after evaluation of cell viability.
compound,measurement,setting,value
O=C1/C(=C/c2ccc(O)c(O)c2)Oc2cc(O)ccc21 [sulfuretin],free radical scavenging ability (inhibition),[1]; sulfuretin 0.1 μg/ml,≥ 10%
same,free radical scavenging ability (inhibition),[1]; sulfuretin 1 μg/ml,≥ 18%
same,free radical scavenging ability (inhibition),[1]; sulfuretin 5 μg/ml,≥ 58%
same,free radical scavenging ability (inhibition),[1]; sulfuretin 10 μg/ml,≥ 70%
same,free radical scavenging ability (inhibition),[1]; sulfuretin 25 μg/ml,≥ 71%
same,free radical scavenging ability (inhibition),[1]; sulfuretin 50 μg/ml,≥ 73%
same,free radical scavenging ability (inhibition),[1]; sulfuretin 100 μg/ml,≥ 75%
same,PARP expression,PARP; hydrogen peroxide + sulfuretin 0.1 μg/ml,≥ 70%
same,PARP expression,PARP; hydrogen peroxide + sulfuretin 0.5 μg/ml,≥ 92%
same,PARP expression,PARP; hydrogen peroxide + sulfuretin 1 μg/ml,≥ 99%
same,ROS production,SH-SY5Y cells; sulfuretin 0.1 μg/ml,≤ 147%
same,ROS production,SH-SY5Y cells; sulfuretin 0.5 μg/ml,≤ 126%
same,ROS production,SH-SY5Y cells; sulfuretin 1 μg/ml,≤ 123%
same,ROS production,SH-SY5Y cells; sulfuretin 5 μg/ml,≤ 103%
same,viability at 0.1 µg/mL,"PC12 cells; PC-12, read-out: cell viability",≥ 52%
same,viability at 0.5 µg/mL,"PC12 cells; PC-12, corticosterone-induced cell death, sulfuretin 0.5 μg/ml",≥ 55%
same,viability at 1 µg/mL,"PC12 cells; PC-12, corticosterone-induced cell death, sulfuretin 1 μg/ml",≥ 72%
same,viability at 5 µg/mL,"PC12 cells; PC-12, corticosterone-induced cell death, sulfuretin 5 μg/ml",≥ 90%

# Reference: patent publication US20150031760A1, “PHARMACEUTICAL COMPOSITION FOR PREVENTING OR TREATING NERVOUS SYSTEM DISORDERS COMPRISING SULFURETIN OR PHARMACEUTICALLY ACCEPTABLE SALT THEREOF” (Research and Business Foundation SUNGKYUNKWAN UNIVERSITY, priority 2010, published 2015)
